# Results published in US20230141718A1, “METHODS OF TREATING GLIOBLASTOMA” (CELGENE QUANTICEL RESEARCH, INC., priority 2021, published 2023).
# Experiments:
# CCR1 RNA = assay: Blood CCR1 RNA pharmacodynamics, CC-90010-GBM-002; type: in vivo, human; settings: for Day 4 blood CCR1 RNA downregulation: 2-4 hours post-dose
# Excerpt: The primary objectives of the study in this example were to establish the safety, maximum tolerated dose (MTD), and recommended phase 2 dose (RP2D) of Compound A. The preliminary efficacy, pharmacokinetics, and pharmacodynamics were also investigated.
# (§1) The study described in this example (CC-90010-GBM-002/NCT04324840) is a phase 1B dose-finding study investigating standard of care of Compound A in combination with TMZ with or without radiotherapy (RT) in subjects with newly diagnosed GBM. Part A of the study is escalating the oral doses of Compound A in combination with adjuvant TMZ to estimate the MTD and/or the RP2D of Compound A as adjuvant therapy and escalating the oral doses of Compound A in combination with concomitant TMZ+radiotherapy (RT) to estimate the MTD and/or the RP2D of Compound A as concomitant therapy. Part B of the study is the safety and efficacy of Compound A administered at or below the MTD determined for the adjuvant therapy (AT) and concomitant therapy (CT).
# The interim results for adjuvant Compound A+temozolomide are described. For adjuvant therapy, patients received Compound A at 15, 30, or 45 mg daily (4 days on/24 days off)+temozolomide administered per label for 6 cycles (150 mg/m^2 at Cycle 1 then 200 mg/m^2; QD for 5 days), followed by Compound A at 45 mg monotherapy daily (4 days on/24 days off).
# [1] = Safety (TRAEs/TEAEs), CC-90010-GBM-002 Parts A and B; type: in vivo
# Excerpt: This was then followed by a break in treatment therapy, e.g., from 1 to up to 4 weeks. […] Adjuvant therapy cycles were repeated from 2 to 6 times. After adjuvant therapy, was a monotherapy treatment.
# The demographics and characteristics of treated patients are described in the below table.
# newly diagnosed GBM = assay: Efficacy (duration of treatment, PFS, best overall response), CC-90010-GBM-002 Part A; type: in vivo, human
# Excerpt: The Response Assessment in Neuro-Oncology criteria (RANO) is used to assess response to first-line treatment of glioblastoma. See, Leao, D. J. et al., American Journal of Neuroradiology 2019, 1-11. The RANO criteria divides response into four types of response based on imaging (MRI) and clinical features: (1) complete response (CR); (2) partial response (PR); (3) stable disease (SD); and (4) progression. For this assessment, a measurable disease is defined as bidimensional contrast-enhancing lesions with clearly defined margins, with 2 perpendicular diameters of at least 10 mm, visible on ≥2 axial slices. The nonmeasurable disease is defined as either unidimensional measurable lesions, masses with margins not clearly defined as frequently noted in the surgical margins, or lesions with maximal perpendicular diameters of <10 mm.
# as §1
# For adjuvant therapy, Compound A and TMZ was administered for 6 cycles, then Compound A as a monotherapy was administered in 28-day cycles until disease progression, start of a new anticancer therapy, or withdrawal of consent or physician's decision. For adjuvant therapy, Compound A was administered at 15, 30, and 45 mg 4 days on/24 days off and TMZ was administered at 150 or 200 mg/m^2 QD Days 1-5, followed by Compound A at 45 mg 4 days on/24 days off. For adjuvant therapy, part B, Compound A was administered at RP2D and TMZ was administered at 150 or 200 mg/m^2, followed by Compound A at 45 mg 4 days on/24 days off.
# For concomitant therapy, Compound A, TMZ, and RT were administered for 6 weeks, then 4-week break, followed by adjuvant Compound A and TMZ for 6 cycles then Compound A monotherapy in 28-day cycles until disease progression, start of a new anticancer therapy, withdrawal of consent or physician's decision. For concomitant therapy, part A, Compound A was administered at 15 mg or 30 mg QD Days 1-4 (weeks 1,5), TMZ was administered at 75 mg/m^2/day QD, and RT was administered at 2 Gy QD×5 days/week, for 42 days. This was then followed by a break in treatment therapy, e.g., from 1 to up to 4 weeks. Thereafter, adjuvant therapy was initiated by administering Compound A at 30 mg or 45 mg and TMZ at 150 or 200 mg/m^2 QD Days 1-5 of a 28-day cycle. Adjuvant therapy cycles were repeated from 2 to 6 times. After adjuvant therapy, was a monotherapy treatment. Monotherapy comprised administering Compound A at 45 mg 4 days on/24 days off.
# For Part A, eighteen patients were enrolled in the adjuvant cohort and received adjuvant Compound A 15 mg/day (n=5), 30 mg/day (n=6), or 45 mg/day (n=7) 4 days on/24 days off plus TMZ followed by Compound A monotherapy 45 mg/day 4 days on/24 days off. Fourteen patients were enrolled in the concomitant cohort and received concomitant Compound A 15 mg/day (n=6) or 30 mg/day (n=8) 4 days on/24 days off in combination with TMZ and RT, followed by adjuvant Compound A 30 mg/day 4 days on/24 days off and Compound A monotherapy 45 mg/day 4 days on/24 days off. The demographics and characteristics of treated patients are described in the below table.
compound,measurement,setting,value
"Cn1cc(-c2cc(S(C)(=O)=O)ccc2OCC2CC2)c2ccccc2c1=O [Compound A, 4-[2-(cyclopropylmethoxy)-5-methylsulfonylphenyl]-2-methylisoquinolin-1-one]",Day 4 blood CCR1 RNA downregulation,CCR1 RNA; 15-mg group,downregulated partially
same,Day 4 blood CCR1 RNA downregulation,CCR1 RNA; 30-mg group,≥ 50%
same,CCR1 downregulation,"CCR1 RNA; following first and last dose of ≥30 mg, cycle 1, CC-90010-GBM-002 (FIG. 6)",≥ 50%
same,patients with Grade 3/4 TRAEs,[1]; Part A adjuvant cohort,56%
same,patients with TEAEs leading to treatment discontinuation,[1]; Part A adjuvant cohort,11%
same,patients with any-grade gastrointestinal TRAEs,[1]; Part A adjuvant cohort,78%
same,patients with grade 3/4 diarrhea,[1]; Part A adjuvant cohort,one
same,"patients with thrombocytopenia TRAE, any grade",[1]; Part A adjuvant cohort,72%
same,"patients with thrombocytopenia TRAE, grade 3/4",[1]; Part A adjuvant cohort,50%
same,patients with any-grade TRAEs,[1]; Part A adjuvant cohort (Compound A + TMZ),94%
same,patients with Grade 3/4 TRAEs,[1]; Part A concomitant cohort,64%
same,patients with TEAEs leading to treatment discontinuation,[1]; Part A concomitant cohort,7%
same,patients with gastrointestinal TRAEs,[1]; Part A concomitant cohort,93%
same,patients with grade 3/4 TRAE of diarrhea,[1]; Part A concomitant cohort,7%
same,"patients with nausea, any-grade TRAE",[1]; Part A concomitant cohort,79%
same,"patients with thrombocytopenia, any grade",[1]; Part A concomitant cohort,71%
same,"patients with thrombocytopenia, grade 3/4",[1]; Part A concomitant cohort,50%
same,patients with any-grade TRAEs,[1]; Part A concomitant cohort (Compound A + TMZ + RT),100%
same,treatment-related deaths,"[1]; Part A, both cohorts",no treatment-related deaths
same,patients with Grade 3/4 TRAEs related to Compound A,[1]; Part B,29%
same,patients with Grade 3/4 neutropenia related to Compound A,[1]; Part B,18%
same,patients with Grade 3/4 thrombocytopenia related to Compound A,[1]; Part B,18%
same,patients with TRAE leading to treatment discontinuation,[1]; Part B arm A,4%
same,patients with TRAEs related to Compound A,[1]; Part B arm A,86%
same,patients with diarrhea related to Compound A,[1]; Part B arm A,43%
same,patients with nausea related to Compound A,[1]; Part B arm A,46%
same,patients with thrombocytopenia related to Compound A,[1]; Part B arm A,46%
same,tolerability in long-term follow-up,[1]; adjuvant Compound A plus TMZ and concomitant Compound A plus TMZ and RT,well tolerated
same,best overall response: CR,newly diagnosed GBM; adjuvant cohort,6%
same,best overall response: NE,newly diagnosed GBM; adjuvant cohort,6%
same,best overall response: PD,newly diagnosed GBM; adjuvant cohort,11%
same,best overall response: SD,newly diagnosed GBM; adjuvant cohort,78%
same,median PFS,"newly diagnosed GBM; adjuvant cohort, 95% CI 3.9-NE",7.7 months
same,progression-free survival (PFS) rate at 6 months,"newly diagnosed GBM; adjuvant cohort, 95% CI 31.1-77.3",57.8%
same,best overall response: CR,newly diagnosed GBM; concomitant cohort,7%
same,best overall response: NE,newly diagnosed GBM; concomitant cohort,7%
same,best overall response: PD,newly diagnosed GBM; concomitant cohort,7%
same,best overall response: SD,newly diagnosed GBM; concomitant cohort,79%
same,median PFS,"newly diagnosed GBM; concomitant cohort, 95% CI 5.2-14.0",12.3 months
same,PFS rate at 6 months,"newly diagnosed GBM; concomitant cohort, 95% CI 37.3-87.2",69.2%
